Target: HPK1 (Homo sapiens (Human), UniProt Q92918)
Assay: HPK1 Kinase Binding Assay
Conditions: LanthaScreen tracer 222 binding, active HPK1, one hour incubation at 25° C.
Method: A stock solution of 1 mM test compound was prepared in DMSO. The compound plate was prepared by 3-fold and 11-point serial dilutions. 0.1 μL of the compound in DMSO was transferred from the compound plate to the white 384 well polystyrene plates. The assay buffer contained 50 mM HEPES, pH 7.5, 0.01% Tween-20, 5 mM MgCl2, 0.01% BSA, and 5 mM DTT. 5 μl of 4 nM active HPK1 (SignalChem M23-11G) prepared in the buffer was added to the plate. The enzyme concentration given was based on the given stock concentration reported by the vender. 5 μl of 18 nM tracer 222 (ThermoFisher PV6121) and 4 nM LanthaScreen Eu-Anti GST antibody (ThermoFisher PV5595) were added. After one hour incubation at 25° C., the plates were read on a PHERAstar FS plate reader (BMG Labtech). Ki values were determined.

HPK1, sequence (Q92918 1-346): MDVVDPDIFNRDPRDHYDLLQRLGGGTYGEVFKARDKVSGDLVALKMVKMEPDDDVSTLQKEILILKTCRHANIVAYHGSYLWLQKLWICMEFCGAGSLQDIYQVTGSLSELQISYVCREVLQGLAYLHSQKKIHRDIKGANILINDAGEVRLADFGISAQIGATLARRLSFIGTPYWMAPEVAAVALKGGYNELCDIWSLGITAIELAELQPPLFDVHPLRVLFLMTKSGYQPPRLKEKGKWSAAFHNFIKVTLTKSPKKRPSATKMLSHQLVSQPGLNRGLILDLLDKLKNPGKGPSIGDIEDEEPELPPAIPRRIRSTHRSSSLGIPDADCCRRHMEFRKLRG

Ki [µM]	SMILES
≤ 0.1	CN1CCN(c2ccc(-c3n[nH]c4cnc(-c5ccccc5F)nc34)cc2)CC1 [Example 1, 5-(2-Fluorophenyl)-3-[4-(4-methylpiperazin-1-yl)phenyl]-1H-pyrazolo[4,3-d]pyrimidine]
≤ 0.1	Cc1ccccc1-c1ncc2[nH]nc(-c3ccc(N4CCN(C)CC4)cc3)c2n1 [Example 2, 3-(4-(4-Methylpiperazin-1-yl)phenyl)-5-o-tolyl-1H-pyrazolo[4,3-d]pyrimidine]
≤ 0.1	COc1ccccc1-c1ncc2[nH]nc(-c3ccc(N4CCN(C)CC4)cc3)c2n1 [Example 3, 5-(2-Methoxyphenyl)-3-(4-(4-methylpiperazin-1-yl)phenyl)-1H-pyrazolo[4,3-d]pyrimidine]
≤ 0.1	CN1CCN(c2ccc(-c3n[nH]c4cnc(-c5c(F)cccc5Cl)nc34)cc2)CC1 [Example 4, 5-(2-Chloro-6-fluorophenyl)-3-(4-(4-methylpiperazin-1-yl)phenyl)-1H-pyrazolo[4,3-d]pyrimidine]
≤ 0.1	CN1CCN(c2ccc(-c3n[nH]c4cnc(-c5cccnc5)nc34)cc2)CC1 [Example 5, 3-(4-(4-Methylpiperazin-1-yl)phenyl)-5-(pyridin-3-yl)-1H-pyrazolo[4,3-d]pyrimidine]
≤ 0.1	Cc1cncc(-c2ncc3[nH]nc(-c4ccc(N5CCN(C)CC5)cc4)c3n2)c1 [Example 6, 3-(4-(4-Methylpiperazin-1-yl)phenyl)-5-(5-methylpyridin-3-yl)-1H-pyrazolo[4,3-d]pyrimidine]
≤ 0.1	CN1CCN(c2ccc(-c3n[nH]c4cnc(-c5ccc6c(c5)C(=O)NC6)nc34)cc2)CC1 [Example 7, 6-(3-(4-(4-Methylpiperazin-1-yl)phenyl)-1H-pyrazolo[4,3-d]pyrimidin-5-yl)isoindolin-1-one]
≤ 0.1	CN1CCN(c2ccc(-c3n[nH]c4cnc(-c5cncc(C(=O)N6CCOCC6)c5)nc34)cc2)CC1 [Example 8, (5-(3-(4-(4-Methylpiperazin-1-yl)phenyl)-1H-pyrazolo[4,3-d]pyrimidin-5-yl)pyridin-3-yl)(morpholino)methanone]
≤ 0.1	CNC(=O)c1cncc(-c2ncc3[nH]nc(-c4ccc(N5CCN(C)CC5)cc4)c3n2)c1 [Example 9, N-Methyl-5-(3-(4-(4-methylpiperazin-1-yl)phenyl)-1H-pyrazolo[4,3-d]pyrimidin-5-yl)nicotinamide]
≤ 0.1	CN1CCN(c2ccc(-c3n[nH]c4cnc(-c5cccc6c5CCNC6)nc34)cc2)CC1 [Example 10, 5-(3-(4-(4-Methylpiperazin-1-yl)phenyl)-1H-pyrazolo[4,3-d]pyrimidin-5-yl)-1,2,3,4-tetrahydroisoquinoline]
≤ 0.1	COc1cccc(F)c1-c1ncc2[nH]nc(-c3ccc(N4CCN(C)CC4)cc3)c2n1 [Example 11, 5-(2-Fluoro-6-methoxyphenyl)-3-(4-(4-methylpiperazin-1-yl)phenyl)-1H-pyrazolo[4,3-d]pyrimidine]
≤ 0.1	COc1cccc(F)c1-c1ncc2[nH]nc(-c3ccccc3)c2n1 [Example 12, 5-(2-Fluoro-6-methoxyphenyl)-3-phenyl-1H-pyrazolo[4,3-d]pyrimidine]
0.1 to 0.5	COc1cccc(F)c1-c1ncc2[nH]nc(-c3ccccc3F)c2n1 [Example 13, 5-(2-Fluoro-6-methoxyphenyl)-3-(2-fluorophenyl)-1H-pyrazolo[4,3-d]pyrimidine]
≤ 0.1	COc1cccc(F)c1-c1ncc2[nH]nc(-c3cnn(C)c3)c2n1 [Example 14, 5-(2-Fluoro-6-methoxyphenyl)-3-(1-methyl-1H-pyrazol-4-yl)-1H-pyrazolo[4,3-d]pyrimidine]
≤ 0.1	COc1cccc(F)c1-c1ncc2[nH]nc(-c3ccncc3)c2n1 [Example 15, 5-(2-Fluoro-6-methoxyphenyl)-3-(pyridin-4-yl)-1H-pyrazolo[4,3-d]pyrimidine]
0.1 to 0.5	COc1cccc(F)c1-c1ncc2[nH]nc(-c3cncnc3)c2n1 [Example 16, 5-(2-Fluoro-6-methoxyphenyl)-3-(pyrimidin-5-yl)-1H-pyrazolo[4,3-d]pyrimidine]
